Test results from patent publication US20180311342A1, “IMMUNOSTIMULATING AGENT” (AJINOMOTO CO., INC., priority 2017, published 2018).

How the values were obtained:
Assay type in all cases: in vivo, BALB/c mice
[1] = system: anti-OVA-specific IgG2a subclass antibody; assay: Adjuvant activity test: anti-OVA-specific IgG2a subclass antibody in serum of OVA-immunized mice (ELISA); settings: after secondary immunization, serum 2 weeks later; OVA 5 μg + compound 0.256 μmol in 5% αCD-added saline (Addavax mixed with saline at 1:1), dorsal-subcutaneous; compared to OVA single administration group
Experimental: (§1) 8-Week-old female BALB/c mice were divided into groups (N=6), and each group was primarily immunized by dorsal-subcutaneous administration of (1) ovalbumin (OVA) (5 μg) dissolved in saline as an antigen (OVA single administration group), (2) OVA 5 μg and Addavax™ (mixed with saline at 1:1) dissolved in saline (Addavax™ administration group) as positive control adjuvant, (3) OVA 5 μg and SZ137 0.256 μmol dissolved or dispersed in 5% α-cyclodextrin (hereinafter to be simply referred to as αCD)-added saline (SZ137 administration group), (4) OVA (5 μg) and SZ138 (0.256 μmol) dissolved or dispersed in 5% αCD-added saline (SZ138 administration group), (5) OVA (5 μg) and SZ142 (0.256 μmol) dissolved or dispersed in 5% αCD-added saline (SZ142 administration group), (6) OVA (5 μg) and SZ144 (0.256 μmol) dissolved or dispersed in 5% αCD-added saline (SZ144 administration group), (7) OVA (5 μg) and SZ145 (0.256 μmol) dissolved or dispersed in 5% αCD-added saline (SZ145 administration group), (8) OVA (5 μg) and SZ146 (0.256 μmol) dissolved or dispersed in 5% αCD-added saline (SZ146 administration group), (9) OVA (5 μg) and SZ147 (0.256 μmol) dissolved or dispersed in 5% αCD-added saline (SZ147 administration group), (10) OVA (5 μg) and SZ148 (0.256 μmol) dissolved or dispersed in 5% αCD-added saline (SZ148 administration group), each per mouse. Two week later, the secondary immunization was carried out by dorsal-subcutaneous administration of solutions or dispersions similar to those of the above-mentioned (1)-(10) again. Two weeks from the secondary immunization, the whole blood was extracted under anesthesia, and the obtained serum sample was measured for anti-OVA-specific IgG1 subclass antibody, anti-OVA-specific IgG2a subclass antibody, and anti-OVA-specific IgE antibody.
(§2) The measurement method of the anti-OVA-specific IgG1 subclass antibody and anti-OVA-specific IgG2a subclass antibody in Experimental Example 1 and the following Experimental Examples 2-10 is as follows.
(§3) To a 96 well plate was added 5 μg/ml OVA at 100 µl/well, and the mixture was incubated at 4° C. overnight. After incubation, the mixture was washed three times with 200 μl of PBS-T (PBS (phosphate buffered saline)+0.05% (v/v) Tween 20) per well, and blocked with 100 μl of 5% FCS (fetal calf serum)/PBS solution per well at room temperature for 1-2 hr. Thereafter, the mixture was washed three times with PBS-T (200 μl/well), a diluted serum sample (100 l/well) or the same amount of 5% FCS/PBS solution as a control was added, and the mixture was incubated at 37° C. for 1 hr. To calculate concentration of the antibody, the standard of an anti-OVA-specific IgG1 subclass antibody diluted with 2% FCS/PBS solution was added at 100 ng/ml, 50 ng/ml, 25 ng/ml, 12.5 ng/ml, 6.25 ng/ml, 3.125 ng/ml, 1.56 ng/ml, 0.781 ng/ml, 0.391 ng/ml, 0.195 ng/ml, 0.098 ng/ml, 0 ng/ml, per 1 well. When an anti-OVA-specific IgG2a subclass antibody was measured, the standard of an anti-OVA-specific IgG2a subclass antibody was added at 50 ng/ml, 25 ng/ml, 12.5 ng/ml, 6.25 ng/ml, 3.125 ng/ml, 1.56 ng/ml, 0.781 ng/ml, 0.391 ng/ml, 0.195 ng/ml, 0.098 ng/ml, 0.049 ng/ml, 0 ng/ml, per 1 well. Thereafter, similar to the samples, the mixture was washed five times with PBS-T (200 μl/well), a diluted biotinylated anti-mouse IgG1 antibody and IgG2a antibody were added (100 μl/well), and the mixture was incubated at 37° C. for 45 min. Thereafter, the mixture was washed five times with PBS-T (200 μl/well), a diluted anti-biotin-HRP antibody was added (100 μl/well), and the mixture was incubated at 37° C. for another 30 min. Thereafter, the mixture was washed five times with PBS-T (200 μl/well), TMB substrate solution was added (100 μl/well), and the mixture was incubated at room temperature for 10-15 min. Thereafter, a reaction quenching liquid (2N sulfuric acid solution) was added (50 l/well) to discontinue a color developing reaction, and the absorbance (OD Value=450 nm) was measured by a microplate reader. […]

[2] = system: anti-OVA-specific IgG1 subclass antibody; assay: Adjuvant activity test: anti-OVA-specific IgG1 subclass antibody in serum of OVA-immunized mice (ELISA); settings: after secondary immunization, serum 2 weeks later; OVA 5 μg + compound 0.256 μmol in 5% αCD-added saline (Addavax mixed with saline at 1:1), dorsal-subcutaneous; compared to OVA single administration group
Experimental: as §1, §2, §3

[3] = system: anti-OVA-specific IgG2a subclass antibody; assay: Adjuvant activity test: anti-OVA-specific IgG2a subclass antibody in serum of OVA-immunized mice (ELISA); settings: after primary immunization, serum 2 weeks later; OVA 5 μg + compound 0.256 μmol in 5% αCD-added saline (Addavax mixed with saline at 1:1), dorsal-subcutaneous; compared to OVA single administration group
[4] = system: anti-OVA-specific IgG1 subclass antibody; assay: Adjuvant activity test: anti-OVA-specific IgG1 subclass antibody in serum of OVA-immunized mice (ELISA); settings: after primary immunization, serum 2 weeks later; OVA 5 μg + compound 0.256 μmol in 5% αCD-added saline (Addavax mixed with saline at 1:1), dorsal-subcutaneous; compared to OVA single administration group

Structure (SMILES)	anti-OVA-specific IgG2a subclass antibody production [1]	anti-OVA-specific IgG1 subclass antibody production [2]	anti-OVA-specific IgG2a subclass antibody production [3]	anti-OVA-specific IgG1 subclass antibody production [4]
CCCCCCCCCCCCNC(=O)[C@H](CCCNC(=N)N)NC(=O)OCCCCCCCCCCCC.Cl [SZ187, dodecyl N-[(1S)-1-(dodecylcarbamoyl)-4-guanidino-butyl]carbamate hydrochloride]	significant enhancement	showed a tendency to increase	significant enhancement	significant enhancement
CCCCCCCCCCCCCCCCOC(=O)N[C@@H](CCCCN)C(=O)NCCCCCCCC.Cl [SZ188, hexadecyl N-[(1S)-5-amino-1-(octylcarbamoyl)pentyl]carbamate hydrochloride]	showed a tendency to increase	showed a tendency to increase	a tendency toward increase was found	a tendency toward increase was found
CCCCCCCCCCCCCCCCOC(=O)N[C@@H](CCCCN)C(=O)NCCCCCCCCCCCC.Cl [SZ189, hexadecyl N-[(1S)-5-amino-1-(dodecylcarbamoyl)pentyl]carbamate hydrochloride]	significant enhancement	significant enhancement	a tendency toward increase was found	a tendency toward increase was found
CCCCCCCCCCCCCCCCNC(=O)NCCCCNC(=N)N.Cl [SZ190, 1-(4-guanidinobutyl)-3-hexadecyl-urea hydrochloride]	showed a tendency to increase	showed a tendency to increase	a tendency toward increase was found	a tendency toward increase was found
CCCCCCCCCCCCCCCCCC(=O)N[C@H](CCCNC(=N)N)C(=O)NCCCCCCCCCCCC.Cl [SZ191, N-[(1R)-1-(dodecylcarbamoyl)-4-guanidino-butyl]octadecanamide hydrochloride]	significant enhancement	significant enhancement	significant enhancement	significant enhancement
CCCCCCCCCCCCCCCCNC(=O)N[C@H](CCCNC(=N)N)C(=O)NCCCCCCCCCCCC.Cl [SZ193, (2R)—N-dodecyl-5-guanidino-2-(hexadecylcarbamoylamino)pentanamide hydrochloride]	showed a tendency to increase	showed a tendency to increase	significant enhancement	significant enhancement
CCCCCCCCCCCCCCCC(=O)N[C@H](CCCCN)C(=O)NCCCCCCCCCCCC.Cl [SZ194, N-[(1R)-5-amino-1-(dodecylcarbamoyl)pentyl]hexadecanamide hydrochloride]	showed a tendency to increase	showed a tendency to increase	Significant enhancement	tended to increase
CCCCCCCCCCCCCCCCCC(=O)N[C@@H](CC(C)C)C(=O)NCCCCCCCCCCCC [SZ195, N-[(1S)-1-(dodecylcarbamoyl)-3-methyl-butyl]octadecanamide]	tended to increase	tended to increase	tended to increase	tended to increase
CCCCCCCCCCCCCCCCCC(=O)N[C@@H](CC(C)C)C(=O)NCCCCCCCC [SZ196, N-[(1S)-3-methyl-1-(octylcarbamoyl)butyl]octadecanamide]	tended to increase	significant enhancement	tended to increase	tended to increase
CCCCCCCCCCCCCCCCCCCCCC(=O)N[C@@H](CC(C)C)C(=O)NCCCCCCCCCCCC [SZ197, N-[(1S)-1-(dodecylcarbamoyl)-3-methyl-butyl]docosanamide]	tended to increase	tended to increase	tended to increase	tended to increase
CCCCCCCCCCCCCCCCCCCCCC(=O)N[C@@H](CC(C)C)C(=O)NCCCCCCCC [SZ198, N-[(1S)-3-methyl-1-(octylcarbamoyl)butyl]docosanamide]	tended to increase	tended to increase	tended to increase	tended to increase
CCCCCCCCCCCCCCCC(=O)N[C@@H](CC(C)C)C(=O)NCCCCCCCC [SZ199, N-[(1S)-3-methyl-1-(octylcarbamoyl)butyl]hexadecanamide]	tended to increase	significant enhancement	significant enhancement	significant enhancement
CCCCCCCCCCCCCCCCNC(=O)N[C@@H](CC(C)C)C(=O)NCCCCCCCC [SZ201, (2S)-2-(hexadecylcarbamoylamino)-4-methyl-N-octyl-pentanamide]	tended to increase	tended to increase	tended to increase	tended to increase
CCCCCCCCCCCCCCCCOC(=O)N[C@@H](CC(C)C)C(=O)NCCCCCCCC [SZ203, hexadecyl N-[(1S)-3-methyl-1-(octylcarbamoyl)butyl]carbamate]	tended to increase	tended to increase	Significant enhancement	tended to increase
